According to US6969730B2, “Amines as histamine-3 receptor ligands and their therapeutic applications” (Abbott Laboratories, priority 2001, dated 2005):

Biological target: T1, histamine-3 receptors (H3 receptor) (Rattus norvegicus, UniProt Q9QYN8)
T1 construct: from tissue; host or cells: male Sprague-Dawley rat brain cortex membranes
Test: (3H)-N-α-methylhistamine binding to rat cortical membranes (histamine-3 receptor ligands)
Settings: male Sprague-Dawley rat brain cortical membranes; (3H)-N-α-methylhistamine ~0.6 nM; 30 minutes at 25° C.; Cheng-Prusoff
Description: Briefly, male Sprague-Dawley rat brain cortices were homogenized (1 g tissue/10 mL buffer) in 50 mM Tris-HCl/5 mM EDTA containing protease inhibitor cocktail (Calbiochem) using a polytron set at 20,500 rpm. Homogenates were centrifuged for 20 minutes at 40,000×g. The supernatant was decanted, and pellets were weighed. The pellet was resuspended by polytron homogenization in 40 mL 50 mM Tris-HCl/5 mM EDTA with protease inhibitors and centrifuged for 20 minutes at 40,000×g. […] Rat cortical membranes (12 mg wet weight/tube) were incubated with (^3H)-N-α-methylhistamine (˜0.6 nM) with or without H3 receptor antagonists in a total incubation volume of 0.5 mL of 50 mM Tris-HCl/5 mM EDTA (pH 7.7). Test compounds were dissolved in DSMO to provide a 20 mM solution, serially diluted and then added to the incubation mixture prior to initiating the incubation assay by addition of the membranes. Thioperamide (3 μM) was used to determine nonspecific binding. Binding incubations were conducted for 30 minutes at 25° C. and terminated by addition of 2 mL of ice cold 50 mM Tris-HCl (pH 7.7) and filtration through 0.3% polyethylenimine-soaked Unifilter plates (Packard). These filters were washed 4 additional times with 2 mL of ice-cold 50 mM Tris-HCl and dried for 1 hour. Radioactivity was determined using liquid scintillation counting techniques. Results were analyzed by Hill transformation and Ki values were determined using the Cheng-Prusoff equation.

T1 sequence (Q9QYN8 whole entry): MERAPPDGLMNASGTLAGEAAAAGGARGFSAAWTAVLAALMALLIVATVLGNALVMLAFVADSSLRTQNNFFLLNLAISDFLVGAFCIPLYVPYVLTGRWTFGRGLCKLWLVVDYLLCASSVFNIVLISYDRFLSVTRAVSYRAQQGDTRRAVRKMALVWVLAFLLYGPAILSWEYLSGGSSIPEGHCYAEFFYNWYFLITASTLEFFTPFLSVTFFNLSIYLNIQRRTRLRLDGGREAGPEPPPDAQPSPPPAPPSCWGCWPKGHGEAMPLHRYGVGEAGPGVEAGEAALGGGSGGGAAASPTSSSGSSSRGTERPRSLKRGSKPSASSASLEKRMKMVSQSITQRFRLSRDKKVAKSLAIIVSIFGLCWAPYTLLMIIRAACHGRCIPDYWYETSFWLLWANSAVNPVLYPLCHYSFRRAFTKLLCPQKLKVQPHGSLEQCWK

Molecule	Ki [nM]
Cc1ccc(-c2ccc3oc(CCN4CCC[C@H]4C)cc3c2)cc1 [Example 117, (2R)-2-methyl-1-{2-[5-(4-methylphenyl)-1-benzofuran-2-yl]ethyl}pyrrolidine]	110
C[C@@H]1CCCN1CCc1cc2cc(-c3ccc(OC(F)(F)F)cc3)ccc2o1 [Example 129, (2R)-2-methyl-1-(2-{5-[4-(trifluoromethoxy)phenyl]-1-benzofuran-2-yl}ethyl)pyrrolidine]	150
(2R)-1-{2-[5-(4-methoxyphenyl)-1-benzofuran-2-yl]ethyl}-2-methylpyrrolidine [Example 121]	51
C[C@@H]1CCCN1CCc1cc2cc(C=Cc3ccc(F)cc3)ccc2o1 [Example 135, (2R)-1-(2-{5-[2-(4-fluorophenyl)vinyl]-1-benzofuran-2-yl}ethyl)-2-methylpyrrolidine]	31
CC(=O)c1cccc(-c2ccc3oc(CCN4CCC[C@H]4C)cc3c2)c1 [Example 136, 1-[3-(2-{2-[(2R)-2-methyl-1-pyrrolidinyl]ethyl}-1-benzofuran-5-yl)phenyl]ethanone]	0.4
Cc1cc(C)cc(-c2ccc3oc(CCN4CCC[C@H]4C)cc3c2)c1 [Example 132, (2R)-1-{2-[5-(3,5-dimethylphenyl)-1-benzofuran-2-yl]ethyl}-2-methylpyrrolidine]	19
C[C@@H]1CCCN1CCc1oc2ccc(-c3ccc(C#N)cc3)cc2c1Br [Example 101, 4-(3-bromo-2-{2-[(2R)-2-methylpyrrolidin-1-yl]ethyl}-1-benzofuran-5-yl)benzonitrile]	3.4
C=CCNCCc1cc2cc(-c3ccc(C(=O)N4CCOCC4)cn3)ccc2o1 [Example 63, N-allyl-N-(2-{5-[5-(4-morpholinylcarbonyl)-2-pyridinyl]-1-benzofuran-2-yl}ethyl)amine]	≥ 1000
C[C@@H]1CCCN1CCc1cc2cc(-c3cccc(F)c3)ccc2o1 [Example 122, (2R)-1-{2-[5-(3-fluorophenyl)-1-benzofuran-2-yl]ethyl}-2-methylpyrrolidine]	17
N#Cc1ccc(-c2ccc3oc(CCN4CCCC4)cc3c2)cc1 [Example 2, 4-{2-[2-(1-pyrrolidinyl)ethyl]-1-benzofuran-5-yl}benzonitrile]	46.8
C[C@@H]1CCC[C@H](C)N1CCc1cc2cc(-c3ccc(C(=O)N4CCOCC4)cn3)ccc2o1 [Example 50, 4-{[6-(2-{2-[-2,6-dimethylpiperidinyl]ethyl}-1-benzofuran-5-yl)-3-pyridinyl]carbonyl}morpholine]	37.1
O=C(c1ccc(-c2ccc3oc(CCN4CCC5(CC4)OCCO5)cc3c2)nc1)N1CCOCC1 [Example 60, 8-(2-{5-[5-(4-morpholinylcarbonyl)-2-pyridinyl]-1-benzofuran-2-yl}ethyl)-1,4-dioxa-8-azaspiro[4.5]decane]	≥ 1000
C[C@@H]1CCCN1CCc1cc2cc(-c3cccc(Cl)c3)ccc2o1 [Example 124, (2R)-1-{2-[5-(3-chlorophenyl)-1-benzofuran-2-yl]ethyl}-2-methylpyrrolidine]	34
C[C@@H]1CCCN1CCc1cc2cc(-c3ccc(Cl)c(Cl)c3)ccc2o1 [Example 114, (2R)-1-{2-[5-(3,4-dichlorophenyl)-1-benzofuran-2-yl]ethyl}-2-methylpyrrolidine]	97
COc1cccc(-c2ccc3oc(CCN4CCC[C@H]4C)cc3c2)c1 [Example 120, (2R)-1-{2-[5-(3-methoxyphenyl)-1-benzofuran-2-yl]ethyl}-2-methylpyrrolidine]	23
C[C@@H]1CCCN1CCc1cc2cc(-c3cc(Cl)cc(Cl)c3)ccc2o1 [Example 131, (2R)-1-{2-[5-(3,5-dichlorophenyl)-1-benzofuran-2-yl]ethyl}-2-methylpyrrolidine]	22
COC(=O)[C@@H]1CCCN1CCc1cc2cc(-c3ccc(C#N)cc3)ccc2o1 [Example 15, 4-(2-{2-[2-pyrrolidinemethyl carboxylate]ethyl}-1-benzofuran-5-yl)benzonitrile]	≥ 1000
Cc1noc(C)c1-c1ccc2oc(CCN3CCC[C@H]3C)cc2c1 [Example 161, 3,5-dimethyl-4-(2-{2-[(2R)-2-methyl-1-pyrrolidinyl]ethyl}-1-benzofuran-5-yl)isoxazole]	1.6
C[C@@H]1CCC(=O)N1CCc1cc2cc(-c3ccc(C#N)cc3)ccc2o1 [Example 158, 4-(2-{2-[(2R)-2-methyl-5-oxo-1-pyrrolidinyl]ethyl}-1-benzofuran-5-yl)benzonitrile]	> 1000
C[C@@H]1CCCN1CCc1cc2cc(-c3ccc(CO)cc3)ccc2o1 [Example 133, [4-(2-{2-[(2R)-2-methyl-1-pyrrolidinyl]ethyl}-1-benzofuran-5-yl)phenyl]methanol]	6.4

Molecule	Ki [nM]
CC(O)c1cccc(-c2ccc3oc(CCN4CCC[C@H]4C)cc3c2)c1 (stereo partly drawn) [Example 137, 1-[3-(2-{2-[(2R)-2-methyl-1-pyrrolidinyl]ethyl}-1-benzofuran-5-yl)phenyl]ethanol]	2.8
C[C@@H]1CCCN1CCc1cc2cc(-c3ccc(C#N)cc3)ccc2s1 [Example 165, 4-(2-{2-[(2R)-2-methyl-1-pyrrolidinyl]ethyl}-1-benzothien-5-yl)benzonitrile]	16.8
COC(=O)c1ccc(-c2ccc3oc(CCN4CCC[C@H]4C)cc3c2)cc1 [Example 118, methyl 4-(2-{2-[(2R)-2-methyl-1-pyrrolidinyl]ethyl}-1-benzofuran-5-yl)benzoate]	42
CCON=C(C)c1cccc(-c2ccc3oc(CCN4CCC[C@H]4C)cc3c2)c1 [Example 141, 1-[3-(2-{2-[(2R)-2-methyl-1-pyrrolidinyl]ethyl}-1-benzofuran-5-yl)phenyl]ethanone O-ethyloxime]	44
C[C@@H]1CCCN1CCc1cc2cc(-c3ccccc3Cl)ccc2o1 [Example 123, (2R)-1-{2-[5-(2-chlorophenyl)-1-benzofuran-2-yl]ethyl}-2-methylpyrrolidine]	16
CC(=NOC(C)(C)C)c1cccc(-c2ccc3oc(CCN4CCC[C@H]4C)cc3c2)c1 [Example 142, 1-[3-(2-{2-[(2R)-2-methyl-1-pyrrolidinyl]ethyl}-1-benzofuran-5-yl)phenyl]ethanone O-(tert-butyl)oxime]	29
C[C@@H]1CCCN1CCc1cc2cc(-c3ccc(F)cc3)ccc2o1 [Example 113, (2R)-1-{2-[5-(4-fluorophenyl)-1-benzofuran-2-yl]ethyl}-2-methylpyrrolidine]	77
4-[4-(2-{2-[-2,6-dimethylpiperidinyl]ethyl}-1-benzofuran-5-yl)benzoyl]morpholine [Example 29]	8.46
Cc1ccccc1-c1ccc2oc(CCN3CCC[C@H]3C)cc2c1 [Example 115, (2R)-2-methyl-1-{2-[5-(2-methylphenyl)-1-benzofuran-2-yl]ethyl}pyrrolidine]	33
CC1CCCN1CCc1cc2cc(-c3ccc(Cl)cc3)ccc2o1 (stereo not drawn) [Example 125, 1-{2-[5-(4-chlorophenyl)-benzofuran-2-yl]-ethyl}-2-methylpyrrolidine]	63
C[C@@H]1CCCN1CCc1cc2cc(-c3cccc(C(C)(C)O)c3)ccc2o1 [Example 138, 2-[3-(2-{2-[(2R)-2-methyl-1-pyrrolidinyl]ethyl}-1-benzofuran-5-yl)phenyl]-2-propanol]	1.2
C[C@@H]1CCCN1CCc1cc2c(-c3ccc(C#N)cc3)cccc2o1 [Example 85, 4-(2-{2-[(2R)-2-methyl-1-pyrrolidinyl]ethyl}-1-benzofuran-4-yl)benzonitrile]	42
C[C@@H]1CCCN1CCc1oc2ccc(-c3ccc(C#N)cc3)cc2c1-c1ccsc1 [Example 104, 4-[2-{2-[(2R)-2-methyl-1-pyrrolidinyl]ethyl}-3-(3-thienyl)-1-benzofuran-5-yl]benzonitrile]	41
C[C@@H]1CCCN1CCc1oc2cc(Cl)c(-c3ccc(C#N)cc3)cc2c1Cl [Example 156B, 4-(3,6-dichloro-2-{2-[(2R)-2-methyl-1-pyrrolidinyl]ethyl}-1-benzofuran-5-yl)benzonitrile]	9.7
C[C@@H]1CCCN1CCc1cc2cc(-c3cccc(C(=O)c4cccs4)c3)ccc2o1 [Example 150, [3-(2-{2-[(2R)-2-methyl-1-pyrrolidinyl]ethyl}-1-benzofuran-5-yl)phenyl](2-thienyl)methanone]	3.6
C[C@@H]1CCCN1CCc1cc2cc(Cc3ccccc3)ccc2o1 [Example 153, (2R)-1-[2-(5-benzyl-1-benzofuran-2-yl)ethyl]-2-methylpyrrolidine]	32
C[C@@H]1CCCN1CCc1oc2ccc(-c3ccc(C#N)cc3)cc2c1I [Example 157, 4-(3-iodo-2-{2-[(2R)-2-methyl-1-pyrrolidinyl]ethyl}-1-benzofuran-5-yl)benzonitrile]	8.4
CCc1nc(-c2ccc3oc(CCN4CCC[C@H]4C)cc3c2)no1 [Example 99, 5-ethyl-3-(2-{2-[(2R)-2-methylpyrrolidin-1-yl]ethyl}-1-benzofuran-5-yl)-1,2,4-oxadiazole]	3.6
C[C@@H]1CCCN1CCc1cc2cc(-c3ccc(C#N)c(F)c3)ccc2o1 [Example 111, 2-fluoro-4-(2-{2-[(2R)-2-methyl-1-pyrrolidinyl]ethyl}-1-benzofuran-5-yl)benzonitrile]	9
